Tests used:
[1] = Rat PO cassette assay (oral bioavailability); type: in vivo, Sprague-Dawley rats; settings: male, Sprague-Dawley, plasma, single oral gavage vs intravenous dose, 0.5 mg/kg
Excerpt: Oral bioavailability, or % F, is a measure of the percentage of a drug in an oral dose that actually reaches the systemic circulation. Compound losses can occur due to incomplete formulation dissolution, incomplete absorption due to compound insolubility or instability along the GI, or metabolism in the gut or across the gut wall. The fraction of the dose which reaches the hepatic portal vein must also then pass through the liver before reaching the systemic circulation. Compound metabolism, or “first-pass extraction,” can occur during this initial passage through the liver, and this is an additional potential source of compound loss. Oral bioavailability is calculated as the dose-normalized ratio of drug exposure after an oral dose to that after an intravenous dose, wherein the entire dose is delivered directly to the systemic circulation.
Each cassette study begins with 10 mM DMSO stock solutions of up to 5 different compounds. Typically, compounds are selected such no two compounds dosed in the same cassette have a molecular weight within 5 Da of each other. This simplifies subsequent bioanalysis. Appropriate volumes of each DMSO stock are added into a volume of vehicle (5% sodium bicarbonate, 5% dextrose in H2O) such that the final concentration of each compound is 0.25 mg/mL. Intravenous dosing solutions are sterile-filtered (0.2 μm) prior to dosing.
Pre-cannulated male Sprague-Dawley rats (3 per cassette per route) between 8 and 10 weeks of age were obtained from Harlan Laboratories (Indianapolis, Ind.). Rats received either a single oral gavage or a single intravenous (via lateral tail vein) dose (2 mL/kg) of the dosing solution. The final dose was 0.5 mg/kg. Serial blood samples were harvested via jugular vein cannula at 3 minutes, 15 minutes, 30 minutes, 1 hours, 2 hours, 4 hours, 6 hours, and 24 hours post-dose. Sampling was performed either manually or using automated blood samplers. Samples were collected into microtainer tubes containing EDTA as the anticoagulant and are processed to plasma by refrigerated centrifugation.
Plasma samples were extracted with 3 volumes of MeCN containing a suitable internal standard. Extracts were reconstituted into 3 volumes of water containing 1% formic acid, and analyzed via HPLC-coupled MS/MS. Plasma concentration-time data were analyzed using the Phoenix software (Pharsight Corp., St. Louis, Mo.) to calculate pharmacokinetic parameters.
Compounds of the invention of particular interest were those having a % F>10%, when tested in this assay.

human NEP = human NEP (Homo sapiens (Human), UniProt P08473); experiment: In vitro enzyme inhibition assay at human NEP; settings: recombinant human NEP, fluorogenic peptide substrate, 37° C.; for Ki: pKi
human NEP, sequence (P08473 52-750): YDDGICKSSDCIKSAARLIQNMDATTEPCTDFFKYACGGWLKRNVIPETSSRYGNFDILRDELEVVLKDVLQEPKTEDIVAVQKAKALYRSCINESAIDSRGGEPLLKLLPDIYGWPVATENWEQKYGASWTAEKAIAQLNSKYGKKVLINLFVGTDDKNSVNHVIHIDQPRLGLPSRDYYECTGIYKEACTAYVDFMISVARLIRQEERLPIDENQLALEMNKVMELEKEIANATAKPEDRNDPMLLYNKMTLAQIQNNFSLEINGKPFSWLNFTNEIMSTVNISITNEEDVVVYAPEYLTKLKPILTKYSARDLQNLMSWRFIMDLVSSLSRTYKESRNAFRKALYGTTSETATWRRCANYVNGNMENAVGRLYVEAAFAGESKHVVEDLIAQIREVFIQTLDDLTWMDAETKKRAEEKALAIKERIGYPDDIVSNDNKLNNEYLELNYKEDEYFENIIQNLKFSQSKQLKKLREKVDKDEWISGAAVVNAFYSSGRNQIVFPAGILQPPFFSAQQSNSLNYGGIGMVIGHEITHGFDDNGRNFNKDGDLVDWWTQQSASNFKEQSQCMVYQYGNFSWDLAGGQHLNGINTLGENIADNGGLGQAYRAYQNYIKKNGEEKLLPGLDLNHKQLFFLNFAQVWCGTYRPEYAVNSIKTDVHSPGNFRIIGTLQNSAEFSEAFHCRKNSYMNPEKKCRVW

| Structure (SMILES) | bioavailability [1] | pKi (human NEP) | Ki (human NEP) |
| --- | --- | --- | --- |
| CCOC(=O)[C@H](N)C[C@@H](Cc1ccc(-c2cc(Cl)ccc2F)cc1)NC(=O)c1cnn[nH]1 [Example 14a, (2R,4R)-2-Amino-5-(5′-chloro-2′-fluorobiphenyl-4-yl)-4-[(3H-[1,2,3]triazole-4-carbonyl)amino]pentanoic Acid Ethyl Ester] | > 10% | – | 10 to 31.6 nM |
| CCCCCCOC(=O)[C@H](N)C[C@@H](Cc1ccc(-c2cc(Cl)ccc2F)cc1)NC(=O)c1cnn[nH]1 [Example 14b, (2R,4R)-2-Amino-5-(5′-chloro-2′-fluorobiphenyl-4-yl)-4-[(3H-[1,2,3]triazole-4-carbonyl)amino]pentanoic Acid Hexyl Ester] | > 10% | – | 31.6 to 100 nM |
| CCOC(=O)[C@H](N)C[C@@H](Cc1ccc(-c2cc(Cl)ccc2F)cc1)NC(=O)c1cc(C(C)=O)n[nH]1 [Example 16-10, (2R,4R)-4-[(5-Acetyl-2H-pyrazole-3-carbonyl)amino]-2-amino-5-(5′-chloro-2′-fluoro-biphenyl-4-yl)pentanoic acid ethyl ester] | > 10% | – | 10 to 31.6 nM |
| COC(=O)N[C@H](C[C@@H](Cc1ccc(-c2cc(Cl)ccc2F)cc1)NC(=O)c1ncc(C)o1)C(=O)O [Example 30-4, (2R,4R)-5-(5′-Chloro-2′-fluorobiphenyl-4-yl)-2-methoxycarbonylamino-4-[(5-methyloxazole-2-carbonyl)amino]pentanoic acid] | > 10% | ≧9.0 | – |
| CCc1nc(C(=O)N[C@H](Cc2ccc(-c3cc(Cl)ccc3F)cc2)C[C@@H](NC(=O)OC)C(=O)O)co1 [Example 30-6, (2R,4R)-5-(5′-Chloro-2′-fluorobiphenyl-4-yl)-4-[(2-ethyl-oxazole-4-carbonyl)amino]-2-methoxycarbonylaminopentanoic acid] | > 10% | ≧9.0 | – |
| COC(=O)N[C@H](C[C@@H](Cc1ccc(-c2cc(Cl)ccc2F)cc1)NC(=O)c1ccc(Cl)cn1)C(=O)O [Example 30-12, (2R,4R)-5-(5′-Chloro-2′-fluorobiphenyl-4-yl)-4-[(5-chloro-pyridine-2-carbonyl)-amino]-2-methoxycarbonylaminopentanoic acid] | > 10% | ≧9.0 | – |

Second part, led by results:

| bioavailability [1] | pKi (human NEP) | Structure (SMILES) | Ki (human NEP) |
| --- | --- | --- | --- |
| > 10% | ≧9.0 | Cc1ccccc1-c1n[nH]c(C(=O)N[C@H](Cc2ccc(-c3cc(Cl)ccc3F)cc2)C[C@@H](N)C(=O)O)c1F [Example 16-23, (2R,4R)-2-Amino-5-(5′-chloro-2′-fluorobiphenyl-4-yl)-4-[(4-fluoro-5-o-tolyl-2H-pyrazole-3-carbonyl)amino]pentanoic acid] | – |
| > 10% | ≧9.0 | N[C@H](C[C@@H](Cc1ccc(-c2cc(Cl)ccc2F)cc1)NC(=O)c1cc(-c2ccccc2Cl)no1)C(=O)O [Example 16-24, (2R,4R)-2-Amino-5-(5′-chloro-2′-fluorobiphenyl-4-yl)-4-{[3-(2-chlorophenyl)-isoxazole-5-carbonyl]amino}pentanoic acid] | – |
| > 10% | ≧9.0 | CCc1cc(C(=O)N[C@H](Cc2ccc(-c3cc(Cl)ccc3F)cc2)C[C@@H](CN)C(=O)O)on1 [Example 21-1, (2S,4S)-2-Aminomethyl-5-(5′-chloro-2′-fluorobiphenyl-4-yl)-4-[(3-ethylisoxazole-5-carbonyl)amino]pentanoic acid] | – |
| > 10% | – | CCc1cc(C(=O)N[C@H](Cc2ccc(-c3cc(Cl)ccc3F)cc2)C[C@@H](NC(=O)OC)C(=O)O)on1 [Example 29, (2R,4R)-5-(5′-Chloro-2′-fluorobiphenyl-4-yl)-4-[(3-ethylisoxazole-5-carbonyl)amino]-2-methoxycarbonylaminopentanoic Acid] | ≤ 1 nM |
